Laboratory results taken from ChEMBL document CHEMBL1144322, “Structure-based design of potent and selective inhibitors of collagenase-3 (MMP-13)” (Bioorg Med Chem Lett, 2005).
pKi: −log10 of the molar value.

Key:
Collagenase 3 [1] = biological target: T1, Collagenase 3 (Homo sapiens, UniProt P45452); assay: Inhibition of matrix metalloprotease-13
[2] = biological target: Matrix metalloproteinase-9 (Homo sapiens, UniProt P14780); assay: Inhibition of matrix metalloprotease-9
Interstitial collagenase = biological target: T2, Interstitial collagenase (Homo sapiens, UniProt P03956); assay: Inhibition of matrix metalloprotease-1
T2 sequence (P03956 whole entry): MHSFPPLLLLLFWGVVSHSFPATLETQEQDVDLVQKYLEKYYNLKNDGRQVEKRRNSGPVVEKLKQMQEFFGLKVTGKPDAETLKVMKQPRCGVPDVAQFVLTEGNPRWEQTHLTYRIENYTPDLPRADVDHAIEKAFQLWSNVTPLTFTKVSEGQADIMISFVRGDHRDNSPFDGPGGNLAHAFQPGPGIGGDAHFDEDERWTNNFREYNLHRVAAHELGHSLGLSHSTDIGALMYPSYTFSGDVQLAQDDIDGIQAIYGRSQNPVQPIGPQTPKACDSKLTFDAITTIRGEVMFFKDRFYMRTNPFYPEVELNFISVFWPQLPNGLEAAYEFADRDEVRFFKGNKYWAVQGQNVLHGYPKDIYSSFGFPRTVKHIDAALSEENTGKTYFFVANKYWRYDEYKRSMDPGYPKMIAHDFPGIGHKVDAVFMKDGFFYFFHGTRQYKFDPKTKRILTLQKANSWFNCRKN

[3] = biological target: 72 kDa type IV collagenase (Homo sapiens, UniProt P08253); assay: Inhibition of matrix metalloprotease-2
[4] = biological target: Disintegrin and metalloproteinase domain-containing protein 17 (Homo sapiens, UniProt P78536); assay: Inhibition of TNF-alpha converting enzyme (TACE, ADAM17)
Stromelysin-1 = Stromelysin-1 (Homo sapiens, UniProt P08254); assay: Inhibition of matrix metalloprotease-3
Collagenase 3 [5] = biological target: T1, Collagenase 3; assay: Binding affinity for matrix metalloprotease 13

Sequence of Stromelysin-1 (P08254 whole entry): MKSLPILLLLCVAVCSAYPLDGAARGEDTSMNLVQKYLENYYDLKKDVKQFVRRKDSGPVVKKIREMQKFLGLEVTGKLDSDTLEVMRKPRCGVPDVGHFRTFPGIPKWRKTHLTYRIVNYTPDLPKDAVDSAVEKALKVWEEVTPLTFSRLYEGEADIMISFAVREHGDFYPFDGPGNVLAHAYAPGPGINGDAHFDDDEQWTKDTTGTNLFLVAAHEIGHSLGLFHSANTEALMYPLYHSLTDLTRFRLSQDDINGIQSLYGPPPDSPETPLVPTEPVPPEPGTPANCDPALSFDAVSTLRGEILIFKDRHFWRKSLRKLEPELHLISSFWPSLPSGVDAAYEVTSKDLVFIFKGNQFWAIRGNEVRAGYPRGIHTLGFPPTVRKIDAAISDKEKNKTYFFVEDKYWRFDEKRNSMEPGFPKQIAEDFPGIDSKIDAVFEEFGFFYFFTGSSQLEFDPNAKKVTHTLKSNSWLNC
Sequence of 72 kDa type IV collagenase (P08253 whole entry, the tested form may be a part): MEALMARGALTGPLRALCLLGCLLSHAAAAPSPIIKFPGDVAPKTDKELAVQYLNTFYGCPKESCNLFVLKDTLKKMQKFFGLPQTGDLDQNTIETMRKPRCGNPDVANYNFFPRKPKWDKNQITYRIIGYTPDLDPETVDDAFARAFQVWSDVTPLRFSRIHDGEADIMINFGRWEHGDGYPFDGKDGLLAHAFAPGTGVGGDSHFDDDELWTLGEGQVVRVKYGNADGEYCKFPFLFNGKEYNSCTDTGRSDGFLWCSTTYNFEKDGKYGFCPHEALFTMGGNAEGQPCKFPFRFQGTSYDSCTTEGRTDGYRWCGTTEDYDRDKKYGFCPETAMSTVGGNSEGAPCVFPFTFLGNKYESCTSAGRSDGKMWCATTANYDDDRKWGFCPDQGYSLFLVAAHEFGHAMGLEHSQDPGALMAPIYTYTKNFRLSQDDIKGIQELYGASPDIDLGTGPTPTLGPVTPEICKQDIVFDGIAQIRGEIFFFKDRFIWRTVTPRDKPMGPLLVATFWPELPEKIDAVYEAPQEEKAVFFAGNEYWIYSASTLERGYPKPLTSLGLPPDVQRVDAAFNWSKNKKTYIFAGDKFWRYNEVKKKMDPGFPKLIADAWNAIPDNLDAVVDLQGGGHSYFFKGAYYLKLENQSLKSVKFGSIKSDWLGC
Sequence of Disintegrin and metalloproteinase domain-containing protein 17 (P78536 whole entry, the tested form may be a part): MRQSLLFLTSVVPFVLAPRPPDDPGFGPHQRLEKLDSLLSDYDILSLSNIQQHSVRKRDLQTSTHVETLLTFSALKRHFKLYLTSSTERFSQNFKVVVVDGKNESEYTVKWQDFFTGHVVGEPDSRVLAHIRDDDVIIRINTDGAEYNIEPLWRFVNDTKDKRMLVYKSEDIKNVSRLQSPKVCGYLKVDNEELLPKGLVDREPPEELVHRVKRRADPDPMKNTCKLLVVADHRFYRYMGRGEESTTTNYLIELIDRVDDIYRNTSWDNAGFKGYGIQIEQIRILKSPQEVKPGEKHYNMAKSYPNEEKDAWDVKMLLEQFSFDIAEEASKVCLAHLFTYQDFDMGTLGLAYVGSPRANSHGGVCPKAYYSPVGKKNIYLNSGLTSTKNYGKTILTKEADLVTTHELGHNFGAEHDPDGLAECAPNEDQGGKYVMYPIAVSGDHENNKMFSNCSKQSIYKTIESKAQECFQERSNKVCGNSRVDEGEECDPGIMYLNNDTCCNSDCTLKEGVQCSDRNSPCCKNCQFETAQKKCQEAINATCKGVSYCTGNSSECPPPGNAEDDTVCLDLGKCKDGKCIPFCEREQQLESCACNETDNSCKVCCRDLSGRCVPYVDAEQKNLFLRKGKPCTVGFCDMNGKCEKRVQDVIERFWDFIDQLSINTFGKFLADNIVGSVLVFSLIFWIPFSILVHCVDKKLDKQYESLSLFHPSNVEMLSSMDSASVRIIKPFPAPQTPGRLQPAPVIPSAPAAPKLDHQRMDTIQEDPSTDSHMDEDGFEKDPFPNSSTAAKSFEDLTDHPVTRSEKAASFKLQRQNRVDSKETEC
Sequence of Matrix metalloproteinase-9 (P14780 whole entry): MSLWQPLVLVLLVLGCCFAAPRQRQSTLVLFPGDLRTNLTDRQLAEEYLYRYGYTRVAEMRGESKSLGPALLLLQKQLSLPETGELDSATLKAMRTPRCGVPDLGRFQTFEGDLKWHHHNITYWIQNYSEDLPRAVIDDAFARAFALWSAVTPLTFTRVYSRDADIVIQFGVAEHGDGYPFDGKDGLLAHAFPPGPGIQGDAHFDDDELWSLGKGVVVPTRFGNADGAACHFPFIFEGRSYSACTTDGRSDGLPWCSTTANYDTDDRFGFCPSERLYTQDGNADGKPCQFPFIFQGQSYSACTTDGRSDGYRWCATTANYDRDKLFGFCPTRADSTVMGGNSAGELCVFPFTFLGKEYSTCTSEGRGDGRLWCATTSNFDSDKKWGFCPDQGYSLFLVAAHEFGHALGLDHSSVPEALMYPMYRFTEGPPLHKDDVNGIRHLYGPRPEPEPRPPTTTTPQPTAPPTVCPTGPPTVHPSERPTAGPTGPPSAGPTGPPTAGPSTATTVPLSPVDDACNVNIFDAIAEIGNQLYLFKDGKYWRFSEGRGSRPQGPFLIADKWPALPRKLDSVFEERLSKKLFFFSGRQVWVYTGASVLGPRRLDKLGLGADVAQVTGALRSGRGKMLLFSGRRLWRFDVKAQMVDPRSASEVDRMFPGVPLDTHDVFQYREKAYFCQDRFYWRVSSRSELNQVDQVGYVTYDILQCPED

Row | SMILES | pKi (Collagenase 3 [1]) | pKi [2] | pKi (Interstitial collagenase) | pKi [3] | pKi [4] | pKi (Stromelysin-1) | pKi (Collagenase 3 [5])
1 | O=C1NC(=O)C2(CCC(=O)N2c2ccc(Oc3ccc4c(c3)OCO4)cc2)C(=O)N1 | 8.24 | – | – | – | – | – | –
2 | COC(=O)c1ccc(Oc2ccc(N3C(=O)CCC34C(=O)NC(=O)NC4=O)cc2)cc1 | 8.38 | 8.92 | < 5.30 | 8.33 | < 6.00 | 5.89 | –
3 | CCC1CC(=O)N(c2ccc(Oc3ccccc3)cc2)C12C(=O)NC(=O)NC2=O (single isomer, unassigned) | – | 8.14 | < 5.30 | 8.77 | < 6.00 | 5.92 | 8.39
4 | O=C1NC(=O)C2(CCC(=O)N2c2ccc(Br)cc2)C(=O)N1 | 6.89 | – | – | – | – | – | –
5 | O=C1NC(=O)C2(CCC(=O)N2c2ccc(Oc3ccc(Oc4ccccc4)cc3)cc2)C(=O)N1 | 9.48 | 8.72 | < 5.30 | 8.74 | < 6.00 | 6.96 | –
6 | O=C1NC(=O)C2(CCC(=O)N2c2ccc(-c3ccccc3)cc2)C(=O)N1 | 6.03 | – | – | – | – | – | –
7 | CCC1CC(=O)N(c2ccc(Oc3ccccc3)cc2)C12C(=O)NC(=O)NC2=O (stereo in doubt) | – | 9.06 | < 5.30 | 9.40 | < 6.00 | 7.04 | 9.27
8 | O=C1NC(=O)C2(CCC(=O)N2c2ccc(Oc3ccc(C(=O)O)cc3)cc2)C(=O)N1 | 8.57 | 9.14 | < 5.30 | 9.64 | < 6.00 | 5.49 | –
9 | O=C1NC(=O)C2(CCC(=O)N2c2ccc(Oc3cccc(Cl)c3)cc2)C(=O)N1 | 7.27 | – | – | – | – | – | –
10 | O=C1NC(=O)C2(CCC(=O)N2c2ccc(Oc3ccc(Cl)cc3)cc2)C(=O)N1 | 9.02 | 9.14 | < 5.30 | 9.37 | < 6.00 | 6.37 | –
11 | O=C1NC(=O)C2(CCC(=O)N2c2ccccc2)C(=O)N1 | 5.66 | – | – | – | – | – | –
12 | COc1cccc(Oc2ccc(N3C(=O)CCC34C(=O)NC(=O)NC4=O)cc2)c1 | 8.72 | – | – | – | – | – | –
13 | COc1ccccc1Oc1ccc(N2C(=O)CCC23C(=O)NC(=O)NC3=O)cc1 | 6.96 | – | – | – | – | – | –
14 | O=C1NC(=O)C2(CCC(=O)N2c2ccc(OCc3ccccc3)cc2)C(=O)N1 | 5.96 | – | – | – | – | – | –
15 | O=C1NC(=O)C2(CCC(=O)N2c2ccc(Oc3ccccc3)cc2)C(=O)N1 | 8.33 | 8.33 | < 5.30 | 8.80 | < 6.00 | 5.35 | –
16 | COc1ccncc1Oc1ccc(N2C(=O)CCC23C(=O)NC(=O)NC3=O)cc1 | 7.60 | – | – | – | – | – | –
